Test system: newborn Swiss mice
Experiment: Experiment II: carcinogenicity in newborn mice, chrysene, 7-methylbenz(a)anthracene and K region epoxides (s.c. injection, tumour incidence to 70-75 weeks)
Details: for effect on the incidence of liver, lung or other tumours: in the doses tested (3 x 100 µg or 1 x 60 µg)
Excerpt: Br. J. Cancer (1975) 31, 182 THE CARCINOGENICITY OF POLYCYCLIC HYDROCARBON EPOXIDES IN NEWBORN MICE P. L. GROVER, P. SIMS, B. C. V. MITCHLEY AND F. J. C. ROE From the Chester Beatty Research Institute, Institute of Cancer Research, Royal Cancer Hospital, Fulham Road, London, SW3 6JB Received 9 August 1974. […] THE HYPOTHESIS that the carcino- genicity of polycyclic hydrocarbons is associated with the formation of epoxide metabolites (Grover, Hewer and Sims, 1971, 1972; Keysell et al., 1973) is sup- ported by some experimental evidence but remains unproven. […] The epoxides can also act as alkylating agents (Grover and Sims, 1970) and as mutagens (Ames, Sims and Grover, 1972; Huberman et al., 1971; Cookson, Sims and Grover, 1971; Fahmy and Fahmy, 1973). […] The newborn mouse, which is susceptible to carcinogenic polycyclic hydrocarbons (Roe, Rowson and Salaman, 1961; Roe, Mitchley and Walters, 1963; Walters and Roe, 1964, 1966) can be considered as a convenient source of several types of rapidly dividing cells. Consequently we have tested the K region epoxides derived from phenanthrene, benz(a)anthracene, 7-methylbenz(a)anthracene, dibenz(a,h)- anthracene, chrysene and 3-methylchol- anthrene, together with some of the CARCINOGENICITY OF POLYCYCLIC HYDROCARBON EPOXIDES IN MICE 183 parent hydrocarbons, for carcinogenicity using newborn mice. This paper presents the results that were obtained in these experiments. MATERIALS AND METHODS The polycyclic hydrocarbon epoxides, phenanthrene 9,10-oxide, benz(a)anthracene 5,6-oxide, 7-methylbenz(a)anthracene 5,6- oxide, dibenz(a,h)anthracene 5,6-oxide, chry- sene 5,6-oxide and 3-methylcholanthrene 11,12-oxide were prepared from the parent hydrocarbons (Newman and Blum, 1964; Boyland and Sims, 1965; Sims 1966). Two experiments were undertaken fol- lowing similar protocols. For each experi- ment Swiss mice from a specific pathogen- free colony were time mated so as to produce a large number of litters over the course of 2 or 3 days. […] Test compounds were suspended in poly- ethylene glycol (PEG) 400 and injections of 0-02 ml of the suspension were given by introducing a 25 gauge hypodermic needle through the skin near the root of the tail and threading it subcutaneously to deliver the injected material in the interscapular region. Injections were given to every mouse on the first day or first 3 days of life. The details of treatments and numbers of mice of each sex in each group are shown in Table I (Experiment I) and Table II (Ex- periment II). Surviving mice were weaned when they w ere 21 days old. Thereafter, males and females w ere separated and housed 6 per cage in metal boxes. A mixture of sawdust and wood shavings was used as bedding. The mice were fed on a standard cubed diet (Formulation 86 from C. Holdman and Sons (Plow co Feeds), Byers Lane, South Godstone, Surrey) and water was given ad libitum. Mice were inspected daily, and at weekly intervals they were weighed and palpated for tumours and other lesions. […] The experiment was terminated when surviving mice were between 70 and 75 weeks old. A full routine post- mortem examination, which included disten- sion of the urinary bladder with fixative, was carried out. The number of lesions thought to be neoplasms and the size of the largest such lesion in each organ affected were recorded. All tissues with suspected neoplasms were fixed in Bouin's solution. Haematoxylin and eosin stained 5 µm paraffin wax sections were prepared and examined microscopically. RESULTS The results of the two experiments in terms of tumour incidence are sum- marized in […].

[1] = females, 60 µg, 1 treatment (Day 0 only) s.c. in PEG 400
[2] = males, 60 µg, 1 treatment (Day 0 only) s.c. in PEG 400
[3] = females, 100 µg per treatment, 3 treatments
[4] = females, 100 µg per treatment, 3 treatments (Days 0, 1 and 2) s.c. in PEG 400
[5] = males, 100 µg per treatment, 3 treatments
[6] = males, 100 µg per treatment, 3 treatments (Days 0, 1 and 2) s.c. in PEG 400

Compound: c1ccc2c(c1)-c1cc3ccc4ccccc4c3cc1C1OC21 (stereo not shown) [Dibenz(a,h)anthracene 5,6-oxide]
- No. of mice examined at p.m. at termination of experiment (70-75th week) with liver tumours (females, 60 µg, 1 treatment): 0
- No. of mice examined at p.m. at termination of experiment (70-75th week) with lung tumours (females, 60 µg, 1 treatment): 1
- No. of mice examined at p.m. at termination of experiment (70-75th week) with multiple liver tumours (females, 60 µg, 1 treatment): 0
- No. of mice examined at p.m. at termination of experiment (70-75th week) with multiple lung tumours (females, 60 µg, 1 treatment): 0
- No. of mice examined at p.m. at termination of experiment (70-75th week) with other tumours (females, 60 µg, 1 treatment): 1
- No. of mice examined at p.m. from 50-70th week with liver tumours (females, 60 µg, 1 treatment): 0
- No. of mice examined at p.m. from 50-70th week with lung tumours (females, 60 µg, 1 treatment): 0
- No. of mice examined at p.m. from 50-70th week with other tumours (females, 60 µg, 1 treatment): 0
- No. of survivors at 50 weeks [1]: 20
- No. of survivors at 70 weeks [1]: 19
- effect on the incidence of liver, lung or other tumours: without apparent effect
- No. of mice examined at p.m. at termination of experiment (70-75th week) with liver tumours (males, 60 µg, 1 treatment): 2
- No. of mice examined at p.m. at termination of experiment (70-75th week) with lung tumours (males, 60 µg, 1 treatment): 0
- No. of mice examined at p.m. at termination of experiment (70-75th week) with multiple liver tumours (males, 60 µg, 1 treatment): 1
- No. of mice examined at p.m. at termination of experiment (70-75th week) with multiple lung tumours (males, 60 µg, 1 treatment): 0
- No. of mice examined at p.m. at termination of experiment (70-75th week) with other tumours (males, 60 µg, 1 treatment): 0
- No. of mice examined at p.m. from 50-70th week with liver tumours (males, 60 µg, 1 treatment): 0
- No. of mice examined at p.m. from 50-70th week with lung tumours (males, 60 µg, 1 treatment): 0
- No. of mice examined at p.m. from 50-70th week with other tumours (males, 60 µg, 1 treatment): 0
- No. of survivors at 50 weeks [2]: 19
- No. of survivors at 70 weeks [2]: 16

Compound: Cc1c2ccccc2cc2c1ccc1ccccc12 [7-Methylbenz(a)anthracene, reference compound]
- incidence of lung tumours (3 x 100 µg s.c., newborn, 7-methylbenz(a)anthracene pair): slightly raised
- No. of mice examined at p.m. at termination of experiment (70-75th week) with liver tumours [3]: 0
- No. of mice examined at p.m. at termination of experiment (70-75th week) with lung tumours [3]: 1
- No. of mice examined at p.m. at termination of experiment (70-75th week) with multiple liver tumours [3]: 0
- No. of mice examined at p.m. at termination of experiment (70-75th week) with multiple lung tumours [3]: 1
- No. of mice examined at p.m. at termination of experiment (70-75th week) with other tumours [3]: 1
- No. of mice examined at p.m. from 50-70th week with liver tumours [3]: 0
- No. of mice examined at p.m. from 50-70th week with lung tumours [3]: 7
- No. of mice examined at p.m. from 50-70th week with other tumours [3]: 1
- No. of survivors at 50 weeks [4]: 21
- No. of survivors at 70 weeks [4]: 10
- No. of mice examined at p.m. at termination of experiment (70-75th week) with liver tumours [5]: 1
- No. of mice examined at p.m. at termination of experiment (70-75th week) with lung tumours [5]: 3
- No. of mice examined at p.m. at termination of experiment (70-75th week) with multiple liver tumours [5]: 1
- No. of mice examined at p.m. at termination of experiment (70-75th week) with multiple lung tumours [5]: 3
- No. of mice examined at p.m. at termination of experiment (70-75th week) with other tumours [5]: 1
- No. of mice examined at p.m. from 50-70th week with liver tumours [5]: 11
- No. of mice examined at p.m. from 50-70th week with lung tumours [5]: 10
- No. of mice examined at p.m. from 50-70th week with other tumours [5]: 0
- No. of survivors at 50 weeks [6]: 23
- No. of survivors at 70 weeks [6]: 4
- activity in increasing the incidence of liver tumours in males compared with K region epoxide (neonatally injected, 3 x 100 µg): more active than its K region epoxide

Compound: Cc1ccc2cc3c(c4c2c1CC4)C1OC1c1ccccc1-3 (stereo not shown) [3-Methylcholanthrene 11,12-oxide]
- No. of mice examined at p.m. at termination of experiment (70-75th week) with liver tumours (females, 60 µg, 1 treatment): 0
- No. of mice examined at p.m. at termination of experiment (70-75th week) with lung tumours (females, 60 µg, 1 treatment): 3
- No. of mice examined at p.m. at termination of experiment (70-75th week) with multiple liver tumours (females, 60 µg, 1 treatment): 0
- No. of mice examined at p.m. at termination of experiment (70-75th week) with multiple lung tumours (females, 60 µg, 1 treatment): 1
- No. of mice examined at p.m. at termination of experiment (70-75th week) with other tumours (females, 60 µg, 1 treatment): 0
- No. of mice examined at p.m. from 50-70th week with liver tumours (females, 60 µg, 1 treatment): 0
- No. of mice examined at p.m. from 50-70th week with lung tumours (females, 60 µg, 1 treatment): 0
- No. of mice examined at p.m. from 50-70th week with other tumours (females, 60 µg, 1 treatment): 0
- No. of survivors at 50 weeks [1]: 27
- No. of survivors at 70 weeks [1]: 25
- effect on the incidence of liver, lung or other tumours: without apparent effect
- No. of mice examined at p.m. at termination of experiment (70-75th week) with liver tumours (males, 60 µg, 1 treatment): 6
- No. of mice examined at p.m. at termination of experiment (70-75th week) with lung tumours (males, 60 µg, 1 treatment): 5
- No. of mice examined at p.m. at termination of experiment (70-75th week) with multiple liver tumours (males, 60 µg, 1 treatment): 1
- No. of mice examined at p.m. at termination of experiment (70-75th week) with multiple lung tumours (males, 60 µg, 1 treatment): 0
- No. of mice examined at p.m. at termination of experiment (70-75th week) with other tumours (males, 60 µg, 1 treatment): 0
- No. of mice examined at p.m. from 50-70th week with liver tumours (males, 60 µg, 1 treatment): 0
- No. of mice examined at p.m. from 50-70th week with lung tumours (males, 60 µg, 1 treatment): 0
- No. of mice examined at p.m. from 50-70th week with other tumours (males, 60 µg, 1 treatment): 0
- No. of survivors at 50 weeks [2]: 28
- No. of survivors at 70 weeks [2]: 26

— PMC2009384, “The carcinogenicity of polycyclic hydrocarbon epoxides in newborn mice” (British Journal of Cancer, 1975)
